Test results from the NIST ThermoML archive (doi:10.1021/je700266n).
Numbers after ± are expanded uncertainties.

Settings: 101 kPa, Liquid

| mass density (293.15 K) | mass density (298.15 K) | mass density (303.15 K) | mass density (308.15 K) | mass density (313.15 K) | mass density (323.15 K) | mass density (333.15 K) | mass density (343.15 K) | SMILES |
| --- | --- | --- | --- | --- | --- | --- | --- | --- |
| 1195.71 ± 1.8 kg/m3 | 1192.07 ± 1.8 kg/m3 | 1188.37 ± 1.8 kg/m3 | 1184.72 ± 1.8 kg/m3 | 1181.43 ± 1.7 kg/m3 | 1174.49 ± 1.7 kg/m3 | 1166.89 ± 1.7 kg/m3 | 1159.97 ± 1.6 kg/m3 | CCCCn1cc[n+](C)c1.F[B-](F)(F)F [1-butyl-3-methylimidazolium tetrafluoroborate] |
| 1371.57 ± 2.6 kg/m3 | 1367.22 ± 2.6 kg/m3 | 1362.86 ± 2.5 kg/m3 | 1358.56 ± 2.5 kg/m3 | 1354.3 ± 2.5 kg/m3 | 1345.98 ± 2.5 kg/m3 | 1337.7 ± 2.4 kg/m3 | 1330.76 ± 2.4 kg/m3 | CCCCn1cc[n+](C)c1.F[P-](F)(F)(F)(F)F [1-butyl-3-methylimidazolium hexafluorophosphate] |
| 804.97 ± 0.65 kg/m3 | 801.01 ± 0.66 kg/m3 | 796.89 ± 0.67 kg/m3 | 792.83 ± 0.68 kg/m3 | 789.07 ± 0.69 kg/m3 | 780.74 ± 0.71 kg/m3 | 771.75 ± 0.73 kg/m3 | 762.86 ± 0.75 kg/m3 | CCCO [propan-1-ol] |
